Columns and labels:
[1] = tested on: Hepa 1-6 cells; experiment: Calcein AM live cell marker after prodrug treatment; type: cell-based, mouse; details: following treatment with prodrug
Method: In Vitro cellular uptake of PI, RRH-PI compounds, and IV evaluated by fluorescence measurements. PI and the RRH-prodrugs were tested for cellular uptake on several cell lines which included B16 (murine melanoma), Hepa 1-6 (mouse hepatoma), SK-OV-3 (also SKOV-3, human ovarian carcinoma), OVCAR-3 (human ovarian carcinoma), Jurkat (human T-lymphocyte), 293 (human embryonic kidney), and MC38 (mouse colon carcinoma) cells. Adherent cells were plated at 2.5×10^5 cells/well on 6-well plates 24 h prior to testing. The growth media was removed from individual wells and the drug/prodrug was immediately added to the well with the mixing chamber. Final drug/prodrug concentrations were 0.150 μmol in 220 μl total volume (20 μl OS, 200 μl ITG). After 30 sec the drug solution was removed (aspirated) and 2 ml complete media was added to the cells. […] Fluorescent microscopy studies were conducted with a three laser LSM 510 confocal microscope, an Axiovert S100 fluorescent microscope, or an Axioplan2 fluorescent microscope (all Zeiss) equipped with filter sets for the rhodamine fluorescence channel (λex=BP 450/12, λem=LP 590 nm filter set) and the fluorescein fluorescent channel (λex=BP 546/90, λem=LP 515 nm filter set). […]

[2] = tested on: hepatocytes; experiment: Uptake by hepatocytes in vivo after intraportal injection (occluded blood flow); design: species or system mouse; details: normal liver, portal vein injection; for cells (hepatocytes) PI positive: 0.300 μmol
Method: Uptake of BDMODS-PI by hepatocytes in vivo. Intraportal injections were conducted in order to target hepatocytes. For the injections, both the portal vein and the celiac artery were clamped to occlude blood flow into the liver. The vena cava was not clamped in order to avoid increased pressure within the liver during the injection procedure. The blood in the liver was flushed out with 1 ml of ITG delivered through the portal vein (1 min). 0.300 μmol PI or II in 40 μl of DMF was then delivered together with 400 μl ITG via the mixing chamber. 5 min after injection the livers were perfused with 3 ml of ITG to flush any drug remaining in the vasculature, and livers were sectioned as above or the hepatocytes were isolated. Slides were prepared from the resulting hepatocyte isolations for examination by fluorescent microscopy (Axioplan2 fluorescent microscope in the fluorescein fluorescent channel (λex=BP 546/90, λem=LP 515 nm filter set) due to signal intensity, magnification=400×, Zeiss) by placing a drop of the cell suspension (about 20 μl) on a clean glass slide and preparing a cell smear. Random fields were examined, and the number of positive cells was counted out of a total of 200 cells in order to determine the percentage of PI positive cells in the sample.
The amount of PI retained in hepatocytes was also quantitated following intraportal injections of PI and II. The isolated hepatocyte cell suspensions were dissolved in 0.5% octyl glycoside in 10 mM HEPES buffer, pH 7.5. Nucleic acid was then isolated from cell suspensions (0.5 ml) using phenol extraction. PI fluorescence spectra were monitored (Shimadzu RF 1501 Spectrophotometer) using an excitation wavelength of 530 nm and an emission wavelength of 617 nm. All spectra were background subtracted using the fluorescence of cell suspensions from untreated animals. PI calibration curves were generated by mixing increasing amounts of PI in each of the samples. […] The amount of PI uptake was then calculated according to the equation: Amt(%)=100×PIs/PIi, where PIs is the amount of PI in the cell suspension and PIi is the amount of PI or BDMOD-PI injected (corrected for the sample size relative to the total liver).

[3] = tested on: SK-OV-3 ovarian tumors; experiment: Intraperitoneal perfusion chemotherapy (IPPC) in SK-OV-3 mouse model; type: in vivo
Method: In a separate experiment, ovarian cancer development was monitored until signs of ascitis (4-5 wks). At this time, a test IPPC injection was conducted with C12PMMA-PI by adapting methodology typically used for peritoneal perfusion. Briefly, two 23 G Abbocath-T effluent catheters with multiple perforations were inserted into the peritoneal cavity and advanced to the region of the ovaries on both sides of the vertebra. The ascitic fluid was slowly aspirated with minimal negative pressure. Then an additional 23 G perforated catheter was inserted into abdomen and positioned on top of abdominal organs. 1 mL of drug/DMF/ITG solution was infused over 1 min, followed by repeated gentle massage. 5-7 min post administration, peritoneal fluid was again aspirated, and the peritoneal cavity was perfused with 10 mL of PBS via the top catheter, together with simultaneous aspiration via the lower two catheters. Special care was taken to avoid elevated abdominal pressure during the procedure. […] Confocal microscopy indicated a similar staining pattern as observed previously, with strong propidium iodide nuclear labeling of all of the outer cells exposed to peritoneal cavity, including ovarian tumors. […] All cells exposed to peritoneal cavity and thereby to the prodrug solution indicated prodrug uptake and staining, including: mesentery cells, outer layer of cells of abdominal organs, and disseminated peritoneal ovarian tumors. The tumor lesions still appeared to be more susceptible to drug uptake, indicating both greater tissue penetration and intense PI^+-staining as compared to normal abdominal tissue, with the exception of the mesentery which was also was heavily PI^+.

| Compound | cells both PI and calcein positive [1] | injected PI bound to hepatocyte nucleic acid [2] [%] | cells (hepatocytes) PI positive [2] | labeling of microtumors (0.1-1 mm) [3] | depth of labeling of large tumors (5-7 mm) ([3]; 4-5 wks after inoculation) | survival of the perfusion procedure ([3]; sacrificed 3-5 h later) |
| --- | --- | --- | --- | --- | --- | --- |
| CCCCCCCCCCCCCCCCCC[Si](C)(C)Nc1ccc2c(c1)c(-c1ccccc1)[n+](CCC[N+](C)(CC)CC)c1cc(N[Si](C)(C)CCCCCCCCCCCCCCCCCC)ccc21.[I-].[I-] [II, 3,8-bis[((dimethyl)octadecylsilazyl)amine] 5-(3,3-diethyl-3-methylammoniumpropyl) 6-phenyl phenanthridinium diiodide] | approximately 86% | 14 | approximately 70% |  |  |  |
| CCCCCCCCCCCCNC(=O)CCC(=CCC(=O)O)C(=O)Nc1ccc2c(c1)c(-c1ccccc1)[n+](CCC[N+](C)(CC)CC)c1cc(NC(=O)C(=CCC(=O)O)CCC(=O)NCCCCCCCCCCCC)ccc21.[I-].[I-] [III, 3,8-bis-[2-(2 carboxyethylidene)-4-(dodecarbamoyl)-1-oxo-butylamine] 5-(3,3-diethyl-3-methylammoniumpropyl) 6-phenyl phenanthridinium diiodide] |  |  |  | heavily labeled throughout the tumor | about 500 microns | All animals survived the perfusion well |
| CC[N+](C)(CC)CCC[n+]1c(-c2ccccc2)c2cc(N)ccc2c2ccc(N)cc21.[I-].[I-] [PI, Propidium iodide, reference compound] |  | 1.2 | approximately 1% |  |  |  |

— patent US20090074885A1, “Reversible Hydrophobic Modification of Drugs for Improved Delivery to Cells” (Roche Madison Inc., priority 2003, published 2009)
